The structures appear in SMILES notation. Active and inactive are the calls of the source. The calls are words filed in the database; no cut-off is given here.

This passage reports Activity results from ChEMBL document CHEMBL3991941, “GLEPP-1 inhibitors in the treatment of autoimmune and/or inflammatory disorders” (2011).

Assay [1] relates to Mus musculus. Nature of the assay: Reduction in splenomegaly in Balb/c mouse model of dextran sodium sulfate-induced ulcerative colitis at 100 mg/kg, po dosed twice daily at days 3,4, 5 and 6 after the induction of the ulcerative colitis and measured 7 days post ulcerative colitis induction. Also noted: scale not given: the % may be the effect or the level left. The assay is classed as functional.

For assay [2], the system named is Mus musculus. As to the kind of experiment: Reduction in splenomegaly in Balb/c mouse model of dextran sodium sulfate-induced ulcerative colitis at 30 mg/kg, po dosed twice daily at days 3,4, 5 and 6 after the induction of the ulcerative colitis and measured 7 days post ulcerative colitis induction. It is filed as functional. On the set-up: scale not given: the % may be the effect or the level left.

Assay [3] has as its system Mus musculus. As to the kind of experiment: Reduction in colon weight in Balb/c mouse model of dextran sodium sulfate-induced ulcerative colitis at 10 mg/kg, po dosed twice daily at days 3,4, 5 and 6 after the induction of the ulcerative colitis and measured 7 days post ulcerative colitis induction. On the set-up: scale not given: the % may be the effect or the level left. The assay is classed as functional.

Assay [4] has as its system Mus musculus. As to the kind of experiment: Antiinflammatory activity in C3H mouse model of thioglycollate-induced lymphocyte recruitment assessed as decrease in blood macrophages at 30 mg/kg, po dosed 15 mins before thioglycollate stimulation by Beckman Coulter counting based cell counting method relative to untreated control. The assay is classed as functional. Also noted: scale not given: the % may be the effect or the level left.

The subject of assay [5] is Mus musculus. Nature of the assay: Antiinflammatory activity in C3H mouse model of thioglycollate-induced lymphocyte recruitment assessed as decrease in blood lymphocytes at 30 mg/kg, po dosed 15 mins before thioglycollate stimulation by Beckman Coulter counting based cell counting method relative to untreated control. The assay is classed as functional. Also noted: scale not given: the % may be the effect or the level left.

For assay [6], the system named is Mus musculus. Nature of the assay: Antiinflammatory activity in C3H mouse model of thioglycollate-induced lymphocyte recruitment assessed as decrease in blood neutrophils at 30 mg/kg, po dosed 15 mins before thioglycollate stimulation by Beckman Coulter counting based cell counting method relative to untreated control. It is filed as functional. Also noted: scale not given: the % may be the effect or the level left.

For assay [7], the system named is Mus musculus. As to the kind of experiment: Reduction in colon weight in Balb/c mouse model of dextran sodium sulfate-induced ulcerative colitis at 100 mg/kg, po dosed twice daily at days 3,4, 5 and 6 after the induction of the ulcerative colitis and measured 7 days post ulcerative colitis induction. Also noted: scale not given: the % may be the effect or the level left. It is filed as functional.

For assay [8], the system named is Mus musculus. Nature of the assay: Reduction in colon weight in Balb/c mouse model of dextran sodium sulfate-induced ulcerative colitis at 30 mg/kg, po dosed twice daily at days 3,4, 5 and 6 after the induction of the ulcerative colitis and measured 7 days post ulcerative colitis induction. The assay is classed as functional. On the set-up: scale not given: the % may be the effect or the level left.

In assay [9] the test system is Mus musculus. As to the kind of experiment: Reduction in body weight loss in Balb/c mouse model of dextran sodium sulfate-induced ulcerative colitis at 10 to 100 mg/kg, po dosed twice daily at days 3,4, 5 and 6 after the induction of the ulcerative colitis and measured 7 days post ulcerative colitis induction. It is filed as functional, organism-based.

`CCCCCCN(Cc1ccc(C#Cc2ccc(CCCC)cc2)cc1)c1ccc(O)c(C(=O)O)c1`: the Activity is reported as -65% in the assay with Mus musculus [1]; -31% in the assay on Mus musculus [2]; -22% in the assay on Mus musculus [3]; 50% with Mus musculus [4]; 47% in the assay on Mus musculus [5]; 44% in the assay on Mus musculus [6]. For the same molecule, the Activity was -35% in the assay with Mus musculus [7] and -28% with Mus musculus [8].
`CCCCCCc1ccc(C#Cc2ccc(N(Cc3ccc(C(F)(F)F)cc3)C(=O)C(=O)O)cc2)cc1`: the Activity is reported as 32% with Mus musculus [4], 21% with Mus musculus [5] and 15% in the assay with Mus musculus [6].
For `CCCCCCN(Cc1ccc(C#Cc2ccc(CCCC)cc2)cc1)c1ccc(C(=O)O)c(O)c1`, in that order: 65%, 23% and 45%.
For `CCCCCCc1ccc(C#Cc2ccc(CN(C(=O)C(=O)O)C(C)(C)c3cccc(Cl)c3)cc2)cc1`, in that order: 52%, 39% and 25%.
For `CCCCCCN(Cc1ccc(C#Cc2ccc(C(C)(C)C)cc2)cc1)c1ccc(F)c(C(=O)O)c1`, in that order: 42%, 13% and 36%.
For the molecule `CCCCCCc1ccc(C#Cc2ccc(CN(Cc3ccc(C(F)(F)F)cc3)C(=O)C(=O)O)cc2)cc1`, the results for the Activity in the assay on Mus musculus [4], in the assay on Mus musculus [5] and in the assay on Mus musculus [6] were 27%, 29% and 27%, respectively.
Consider `CCCCCCN(Cc1ccc(C#Cc2ccc(CCC)cc2)cc1)c1ccc(F)c(C(=O)O)c1`, for which the Activity in the assay with Mus musculus [4] is 26%; with Mus musculus [5], 4%; with Mus musculus [6], -6%.
For the molecule `CCCCCCN(Cc1ccc(C#Cc2ccc(CCCC)cc2)cc1)C(=O)c1ccc(O)c(C(=O)O)c1`, the figures for the Activity with Mus musculus [4], in the assay with Mus musculus [5] and with Mus musculus [6] were 62%, 41% and 41%, respectively.
As for `O=C(O)C(=O)N(Cc1ccc(C#CCCCCCCCCCF)cc1)Cc1ccc(C(F)(F)F)cc1`, the Activity in the assay with Mus musculus [4] is recorded as 36%; with Mus musculus [5], 24%; in the assay on Mus musculus [6] it was 16%.
Regarding `CCCCCCN(Cc1ccccc1C#Cc1ccc(CCCC)cc1)C(=O)c1ccc(O)c(C(=O)O)c1`, the Activity with Mus musculus [1] was -45%; in the assay with Mus musculus [2], -25%; with Mus musculus [3] it was -47%; with Mus musculus [8], -50%. Moreover, the result in the assay on Mus musculus [9] was Active.
Consider `CCCCc1ccc(C#Cc2ccc(CN(CC3CCCC3)c3ccc(F)c(C(=O)O)c3)cc2)cc1`, for which the Activity in the assay on Mus musculus [4] stood at 37%; in the assay on Mus musculus [5], 23%; in the assay on Mus musculus [6], 36%.
Taken in the same sequence, the figures for `CCCCCCN(Cc1ccc(F)c(C(=O)O)c1)c1ccc(C#Cc2ccc(CCCC)cc2)cc1` were 32%, 8% and 28%.
